Data reported in patent publication US8871767B2, “2-arylimidazo[1,2-B]pyridazine, 2-phenylimidazo[1,2-A]pyridine, and 2-phenylimidazo[1,2-A]pyrazine derivatives” (Hengrui (USA) Ltd., priority 2010, dated 2014).
Like-named read-outs stand apart in the source and are kept apart here. Each block holds one compound with its values, some of them ahead of it.

Legend:
[1] = tested on: Hedgehog pathway activation (GLi-luciferase reporter) in Shh Light II reporter cells; assay: Hedgehog pathway activation on Shh Light II reporter cells measured by luciferase activity; format: cell-based; details: Mus musculus, Shh Light II
Summary of the method: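 Shh Light II reporter cells carrying a hedgehog-responsive GLi-luciferase reporter were stimulated either with 500 nM SAG, a direct Smoothened agonist, or with conditioned media containing human Sonic Hedgehog (hShh). Test compounds were evaluated for blocking this pathway activation, quantified by luciferase activity. Cell viability was monitored in parallel with the Celltiter-Blue® assay.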

[2] = tested on: Hedgehog pathway activation on 10T1/2/Smo#3 cells (C3H10T1/2 cells transfected with human Smoothened receptor); assay: Hedgehog pathway activation on 10T1/2/Smo#3 cells measured by ALP activity; format: cell-based; details: Mus musculus, C3H 10T1/2, 10T1/2/Smo#3 cells
Summary of the method: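 C3H10T1/2 cells stably expressing human Smoothened were activated with hShh-conditioned medium (10-20%) or 500 nM SAG, with test compounds present. Pathway block read as inhibited ALP activity (4-methylumbelliferyl phosphate fluorescence); viability checked by CellTiter-Blue. IC50 values reported.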

[3] = SAG activation (500 nM SAG), read-out: Shh Light II luciferase activity (SAG activation)
[4] = hShh activation, read-out: Shh (IC50, inhibition of Hedgehog pathway activation)
[5] = hShh activation, read-out: Shh Light II luciferase activity (hShh activation)
[6] = hShh activation, ALP activity, read-out: 10T1/2/Smo#3 ALP activity (hShh Activation)
[7] = measured by ALP activity, read-out: ALP (IC50, inhibition of Hedgehog pathway activation)

Structure (SMILES): Cc1ccc(-c2cn3nc(-c4csc(N5CCOCC5)n4)ccc3n2)cc1NC(=O)C(C)(C)C [Example 448, N-(2-methyl-5-(6-(2-morpholinothiazol-4-yl)imidazo[1,2-b]pyridazin-2-yl)phenyl)pivalamide]
IC50 [1, 4]: 1.28 µM
IC50 [2, 7]: 0.643 µM

Structure (SMILES): CN[C@@H]1CCN(c2ccc3nc(-c4ccc(C)c(NC(=O)C(C)(C)C)c4)cn3n2)C1 [Example 391, (R)-N-(2-methyl-5-(6-(3-(methylamino)pyrrolidin-1-yl)imidazo[1,2-b]pyridazin-2-yl)phenyl)pivalamide]
IC50 [1, 3]: 0.3 to 3 µM
IC50 [1, 4]: 0.057 µM
IC50 [1, 5]: < 0.3 µM
IC50 [2, 6]: < 0.3 µM
IC50 [2, 7]: 0.123 µM

Structure (SMILES): Cc1ccc(-c2cn3nc(-c4ccc(C=CC(=O)NO)cc4)ccc3n2)cc1NC(=O)C(C)(C)C [compound 560]
IC50 [1, 3]: 3 to 30 µM
IC50 [1, 4]: 0.402 µM
IC50 [1, 5]: < 0.3 µM
IC50 [2, 6]: 0.3 to 3 µM
IC50 [2, 7]: 0.481 µM

Structure (SMILES): CNC(=O)c1cccc(-c2ccc3nc(-c4ccc(C)c(NC(=O)C(C)(C)C)c4)cn3n2)c1 [Example 453, N-methyl-3-(2-(4-methyl-3-pivalamidophenyl)imidazo[1,2-b]pyridazin-6-yl)benzamide]
IC50 [1, 4]: 0.582 µM
IC50 [2, 7]: 0.751 µM

Structure (SMILES): Cc1c(-c2ccccc2)nc2ccc(N3CCN(Cc4ccncc4)CC3)nn12 [Example 162, 3-methyl-2-phenyl-6-(4-(pyridin-4-ylmethyl)piperazin-1-yl)imidazo[1,2-b]pyridazine]
IC50 [1, 4]: 1.4 µM
IC50 [2, 7]: 1.11 µM

Structure (SMILES): COc1ccc2nc(-c3cc(NC(=O)C4CC4)ccc3Cl)cn2n1 [Example 116, N-(4-chloro-3-(6-methoxyimidazo[1,2-b]pyridazin-2-yl)phenyl)cyclopropanecarboxamide]
IC50 [1, 4]: 9.65 µM
IC50 [2, 7]: > 10 µM

Structure (SMILES): Cc1ccc(-c2nc3ccc(-c4cccnc4C(F)(F)F)nn3c2Cl)cc1NC(=O)C(C)(C)C [Example 641, N-(5-(3-chloro-6-(2-(trifluoromethyl)pyridin-3-yl)imidazo[1,2-b]pyridazin-2-yl)-2-methylphenyl)pivalamide]
IC50 [1, 4]: 0.076 µM
IC50 [2, 7]: 0.034 µM

Structure (SMILES): O=C(CC(F)(F)F)Nc1cc(-c2cn3nc(-c4cccnc4C(F)(F)F)ccc3n2)ccc1Cl [Example 675, N-(2-chloro-5-(6-(2-(trifluoromethyl)pyridin-3-yl)imidazo[1,2-b]pyridazin-2-yl)phenyl)-3,3,3-trifluoropropanamide]
IC50 [1, 4]: 0.099 µM
IC50 [2, 7]: 0.777 µM

Structure (SMILES): Cc1ccc(-c2cn3nc(N4CCC(C(N)=O)CC4)ccc3n2)cc1NC(=O)C(C)(C)C [compound 542]
IC50 [1, 3]: 0.3 to 3 µM
IC50 [1, 4]: 0.094 µM
IC50 [1, 5]: < 0.3 µM
IC50 [2, 6]: < 0.3 µM
IC50 [2, 7]: 0.088 µM

Structure (SMILES): CCOc1ccc2nc(-c3ccc(C(F)(F)F)c(NC(=O)Cc4ccccc4)c3)cn2n1 [Example 194, N-(5-(6-ethoxyimidazo[1,2-b]pyridazin-2-yl)-2-(trifluoromethyl)phenyl)-2-phenylacetamide]
IC50 [1, 4]: 1.75 µM
IC50 [2, 7]: > 10 µM

Structure (SMILES): COc1ccc2nc(-c3ccc(C)c(NCc4ccc(F)cc4)c3)cn2n1 [Example 102, N-(4-fluorobenzyl)-5-(6-methoxyimidazo[1,2-b]pyridazin-2-yl)-2-methylaniline]
IC50 [1, 4]: 9.12 µM
IC50 [2, 7]: 4.21 µM

Structure (SMILES): Cc1ccc(-c2cn3nc(-c4cccnc4C(F)(F)F)ccc3n2)cc1NC(=O)NC1CC1 [Example 651, 1-cyclopropyl-3-(2-methyl-5-(6-(2-(trifluoromethyl)pyridin-3-yl)imidazo[1,2-b]pyridazin-2-yl)phenyl)urea]
IC50 [1, 4]: 0.139 µM
IC50 [2, 7]: 0.127 µM

Other lines, results leading:

IC50 [1, 3]: < 0.3 µM
IC50 [1, 4]: 0.322 µM
IC50 [1, 5]: < 0.3 µM
IC50 [2, 6]: < 0.3 µM
IC50 [2, 7]: 0.337 µM
Structure (SMILES): Cc1ccc(-c2cn3nc(-c4cc(C#N)ccc4C)ccc3n2)cc1NC(=O)C(C)(C)C [Example 450, N-(5-(6-(5-cyano-2-methylphenyl)imidazo[1,2-b]pyridazin-2-yl)-2-methylphenyl)pivalamide]

IC50 [1, 4]: 0.721 µM
IC50 [2, 7]: 1.78 µM
Structure (SMILES): CC(C)(C)C(=O)Nc1cc(-c2cn3nc(OC4CCOCC4)ccc3n2)ccc1C(F)(F)F [Example 310, N-(5-(6-(tetrahydro-2H-pyran-4-yloxy)imidazo[1,2-b]pyridazin-2-yl)-2-(trifluoromethyl)phenyl)pivalamide]

IC50 [1, 4]: 7.76 µM
IC50 [2, 7]: 2.34 µM
Structure (SMILES): CCOc1ccc2nc(-c3ccc(C(F)(F)F)c(NC(=O)c4cccnc4)c3)cn2n1 [Example 193, N-(5-(6-ethoxyimidazo[1,2-b]pyridazin-2-yl)-2-(trifluoromethyl)phenyl)nicotinamide]

IC50 [1, 4]: 0.466 µM
IC50 [2, 7]: 2.69 µM
Structure (SMILES): CC(C)(C)C(=O)Nc1cc(-c2cn3nc(-c4ccc(F)cc4)ccc3n2)ccc1C(F)(F)F [Example 143, N-(5-(6-(4-fluorophenyl)imidazo[1,2-b]pyridazin-2-yl)-2-(trifluoromethyl)phenyl)pivalamide]

IC50 [1, 3]: < 0.3 µM
IC50 [1, 4]: 0.057 µM
IC50 [1, 5]: < 0.3 µM
IC50 [2, 6]: < 0.3 µM
IC50 [2, 7]: 0.029 µM
Structure (SMILES): Cc1ccc(-c2cn3nc(-c4cccnc4C(F)(F)F)ccc3n2)cc1NC(=O)C(C)(C)C [Example 284, N-(2-methyl-5-(6-(2-(trifluoromethyl)pyridin-3-yl)imidazo[1,2-b]pyridazin-2-yl)phenyl)pivalamide]

IC50 [1, 4]: 0.059 µM
IC50 [2, 7]: 0.225 µM
Structure (SMILES): CCc1ccc(-c2cn3nc(-c4cccnc4C(F)(F)F)ccc3n2)cc1NC(=O)C(C)(C)C(F)(F)F [Example 690, N-(2-ethyl-5-(6-(2-(trifluoromethyl)pyridin-3-yl)imidazo[1,2-b]pyridazin-2-yl)phenyl)-3,3,3-trifluoro-2,2-dimethylpropanamide]

IC50 [1, 3]: 0.3 to 3 µM
IC50 [1, 5]: 0.3 to 3 µM
IC50 [2, 6]: < 0.3 µM
IC50 [2, 7]: 0.231 µM
Structure (SMILES): CC(C)(C)C(=O)Nc1cc(-c2cn3nc(-c4ccccc4F)ccc3n2)ccc1OC(F)(F)F [Example 248, N-(5-(6-(2-fluorophenyl)imidazo[1,2-b]pyridazin-2-yl)-2-(trifluoromethoxy)phenyl)pivalamide]

IC50 [1, 4]: 0.899 µM
IC50 [2, 7]: 0.448 µM
Structure (SMILES): CCCOc1ccc(F)c(-c2ccc3nc(-c4ccc(C(F)(F)F)c(NC(=O)C(C)(C)C)c4)cn3n2)c1 [Example 253, N-(5-(6-(2-fluoro-5-propoxyphenyl)imidazo[1,2-b]pyridazin-2-yl)-2-(trifluoromethyl)phenyl)pivalamide]

IC50 [1, 4]: 0.936 µM
IC50 [2, 7]: 0.403 µM
Structure (SMILES): COc1ccccc1-c1ccc2nc(-c3ccc(C(F)(F)F)c(NC(=O)C(C)(C)C)c3)cn2n1 [Example 172, N-(5-(6-(2-methoxyphenyl)imidazo[1,2-b]pyridazin-2-yl)-2-(trifluoromethyl)phenyl)pivalamide]

IC50 [1, 4]: 0.689 µM
IC50 [2, 7]: 0.227 µM
Structure (SMILES): COc1ccncc1-c1ccc2nc(-c3ccc(C(F)(F)F)c(NC(=O)C(C)(C)C)c3)cn2n1 [Example 384, N-(5-(6-(4-methoxypyridin-3-yl)imidazo[1,2-b]pyridazin-2-yl)-2-(trifluoromethyl)phenyl)pivalamide]

IC50 [1, 4]: 0.468 µM
IC50 [2, 7]: 0.607 µM
Structure (SMILES): CC(C)(C)OC(=O)n1cccc1-c1ccc2nc(-c3ccc(C(F)(F)F)c(NC(=O)C(C)(C)C)c3)cn2n1 [Example 178, tert-butyl 2-(2-(3-pivalamido-4-(trifluoromethyl)phenyl)imidazo[1,2-b]pyridazin-6-yl)-1H-pyrrole-1-carboxylate]

IC50 [1, 4]: 0.17 µM
IC50 [2, 7]: 0.707 µM
Structure (SMILES): CCOC(=O)CCCOc1cccc(-c2ccc3nc(-c4ccc(C)c(NC(=O)C(C)(C)C)c4)cn3n2)c1C(F)(F)F [Example 426, ethyl 4-(3-(2-(4-methyl-3-pivalamidophenyl)imidazo[1,2-b]pyridazin-6-yl)-2-(trifluoromethyl)phenoxy)butanoate]

IC50 [1, 4]: 0.357 µM
IC50 [2, 7]: 0.875 µM
Structure (SMILES): COc1ccccc1Oc1ccc2nc(-c3ccc(C(F)(F)F)c(NC(=O)C(C)(C)C)c3)cn2n1 [Example 197, N-(5-(6-(2-methoxyphenoxy)imidazo[1,2-b]pyridazin-2-yl)-2-(trifluoromethyl)phenyl)pivalamide]

IC50 [1, 4]: 0.019 µM
IC50 [2, 7]: 0.12 µM
Structure (SMILES): CC(C)(C(=O)Nc1cc(-c2cn3nc(-c4cccnc4C(F)(F)F)ccc3n2)ccc1Cl)C(F)(F)F [Example 665, N-(2-chloro-5-(6-(2-(trifluoromethyl)pyridin-3-yl)imidazo[1,2-b]pyridazin-2-yl)phenyl)-3,3,3-trifluoro-2,2-dimethylpropanamide]

IC50 [1, 4]: 0.339 µM
IC50 [2, 7]: 0.973 µM
Structure (SMILES): CC(C)(C)C(=O)Nc1cc(-c2cn3nc(OCCN4CCCCC4)ccc3n2)ccc1C(F)(F)F [Example 309, N-(5-(6-(2-(piperidin-1-yl)ethoxy)imidazo[1,2-b]pyridazin-2-yl)-2-(trifluoromethyl)phenyl)pivalamide]

IC50 [1, 4]: 0.11 µM
IC50 [2, 7]: 0.159 µM
Structure (SMILES): CCN[C@@H]1CCN(c2ccc3nc(-c4ccc(C(F)(F)F)c(NC(=O)C(C)(C)C)c4)cn3n2)C1 [Example 635, (R)—N-(5-(6-(3-(ethylamino)pyrrolidin-1-yl)imidazo[1,2-b]pyridazin-2-yl)-2-(trifluoromethyl)phenyl)pivalamide]

IC50 [1, 4]: 0.301 µM
IC50 [2, 7]: 0.449 µM
Structure (SMILES): Cc1ccc(-c2cn3nc(-c4ccc(C(C)(C)O)cc4C(F)(F)F)ccc3n2)cc1NC(=O)C(C)(C)C [compound 533]

IC50 [1, 4]: 1.14 µM
IC50 [2, 7]: 0.446 µM
Structure (SMILES): CN(C)c1cccc(-c2ccc3nc(-c4ccc(C(F)(F)F)c(NC(=O)C(C)(C)C)c4)cn3n2)c1 [Example 256, N-(5-(6-(3-(dimethylamino)phenyl)imidazo[1,2-b]pyridazin-2-yl)-2-(trifluoromethyl)phenyl)pivalamide]
